From patent US20260356860A1, “2-SUBSTITUTED 3,4A,5,7,8,8A-HEXAHYDRO-4H-THIOPYRANO[4,3-DJPYRIMIDIN-4-ONES FOR WOUND TREATMENT” (priority 2022, published 2026)

Key:
new porcine skin = assay: Strain (tensile strength) of healed wound; type: in vivo; conditions: day 21
Description: Additional tests were performed including elasticity (Table 12); max force (Table 13); tensile strength (strain) (Table 14); energy peak (Table 15); rete-ridge formation; and collagen organization (plane polarized light) (FIG. 24) of the healed wound sites, described as follows.
A is saline (control), B is serum formulation (vehicle), C is GO-HA (vehicle), D is Compound 1; E is Compound 1+GO-HA; F is Compound 8; G is Compound 8+GO-HA; H is Compound 10; and J is Compound 10+GO-HA.
Strain (tensile strength) (N/mm^2) is the force required to pull/stretch a material to a breaking point. A 20% improvement over saline considered good. All compounds of Formula (I) tested with or without GO-HA ranged from 36% to 142% improvement in tensile strength compared to the saline control.

[1] = tested on: P. aeruginosa (derived from ATCC ® 15442 ™); assay: Bacteriostasis, log reduction; type: cell-based; conditions: P. aeruginosa ATCC 15442
[2] = tested on: E. coli (derived from ATCC ® 25922 ™); assay: Bacteriostasis, log reduction; type: cell-based; conditions: E. coli ATCC 25922
[3] = tested on: P. aeruginosa (derived from ATCC ® 9027 ™); assay: Bacteriostasis, log reduction; type: cell-based; conditions: P. aeruginosa ATCC 9027
[4] = tested on: K. pneumoniae (derived from ATCC ® 10031 ™); assay: Bacteriostasis, log reduction; type: cell-based; conditions: K. pneumoniae ATCC 10031
[5] = tested on: S. maltophilia (derived from ATCC ® 13637 ™); assay: Bacteriostasis, log reduction; type: cell-based; conditions: S. maltophilia ATCC 13637
[6] = tested on: E. faecalis (derived from ATCC ® 19433 ™); assay: Bacteriostasis, log reduction; type: cell-based; conditions: E. faecalis ATCC 19433
[7] = tested on: P. vulgaris (derived from ATCC ® 8427 ™); assay: Bacteriostasis, log reduction; type: cell-based; conditions: P. vulgaris ATCC 8427

**Q.** What does the source list for `O=c1[nH]c(-c2ccc(-c3ccc(B(O)O)cc3)cc2)nc2c1CSCC2` [Compound 10, (4′-(4-oxo-3,5,7,8-tetrahydro-4H-thiopyrano[4,3-d]pyrimidin-2-yl)-[1,1′-biphenyl]-4-yl)boronic acid]?
**A.** improvement in tensile strength (strain) compared to the saline control (new porcine skin): 105%; Strain (tensile strength) (new porcine skin; topical, individual value 1): 6.792 N/mm^2; Strain (tensile strength) (new porcine skin; topical, individual value 2): 11.592 N/mm^2; Strain (tensile strength) (new porcine skin; topical, individual value 3): 5.862 N/mm^2; Strain (tensile strength) (new porcine skin; topical, individual value 4): 5.506 N/mm^2; Strain (tensile strength), Mean (new porcine skin; topical, mean): 7.438 N/mm^2; Average result ([1]; 24 h): <200; Log Reduction ([1]; 24 h): >3.1; Log Value ([1]; 24 h): <2.3; Average result ([1]; 72 h): <200; Log Reduction ([1]; 72 h): >3.1; Log Value ([1]; 72 h): <2.3; Average result ([2]; 24 h): <200; Log Reduction ([2]; 24 h): >3.1; Log Value ([2]; 24 h): <2.3; Average result ([2]; 72 h): <200; Log Reduction ([2]; 72 h): >3.1; Log Value ([2]; 72 h): <2.3; Average result ([3]; 24 h): <200; Log Reduction ([3]; 24 h): >3.0; Log Value ([3]; 24 h): <2.3; Average result ([3]; 72 h): <200; Log Reduction ([3]; 72 h): >3.0; Log Value ([3]; 72 h): <2.3; Average result ([4]; 24 h): <200; Log Reduction ([4]; 24 h): >2.5; Log Value ([4]; 24 h): <2.3; Average result ([4]; 72 h): <200; Log Reduction ([4]; 72 h): >2.5; Log Value ([4]; 72 h): <2.3; Average result ([5]; 24 h): <200; Log Reduction ([5]; 24 h): >2.8; Log Value ([5]; 24 h): <2.3; Average result ([5]; 72 h): <200; Log Reduction ([5]; 72 h): >2.8; Log Value ([5]; 72 h): <2.3; Average result ([6]; 24 h): 2.9 × 10^4; Log Reduction ([6]; 24 h): 0.3; Log Value ([6]; 24 h): 4.5; Average result ([6]; 72 h): <200; Log Reduction ([6]; 72 h): >2.5; Log Value ([6]; 72 h): <2.3; Average result ([7]; 24 h): <200; Log Reduction ([7]; 24 h): >3.6; Log Value ([7]; 24 h): <2.3; Average result ([7]; 72 h): <200; Log Reduction ([7]; 72 h): >3.6; Log Value ([7]; 72 h): <2.3
